Results from the NIST ThermoML archive (doi:10.1016/j.fluid.2015.05.032).
± gives the expanded uncertainty stated by the source.

Legend:
[1] = Liquid; for mass density: 298.15 K, 101.33 kPa, Vibrating tube method; for Normal boiling temperature: Ebulliometric method (Recirculating still)
[2] = refractive index (Na D-line) (dimensionless); conditions: 293.15 K; 101.33 kPa; Liquid; Standard Abbe refractometry

| mass density [1] | Normal boiling temperature [1] | refractive index [2] | SMILES |
| --- | --- | --- | --- |
| 927.5 ± 0.3 kg/m3 | 56.7 ± 0.2 °C | 1.3614 ± 0.0004 | COC(C)=O [methyl ethanoate] |
| 1043.5 ± 0.3 kg/m3 | 117.93 ± 0.2 °C | 1.3718 ± 0.0004 | CC(=O)O [acetic acid] |
| 866.4 ± 0.3 kg/m3 | 111.93 ± 0.2 °C | 1.3886 ± 0.0004 | CCC(C)OC(C)=O (configuration not stated) [1-methylpropyl ethanoate] |

| SMILES | mass density [1] | Normal boiling temperature [1] | refractive index [2] |
| --- | --- | --- | --- |
| Cc1ccc(C)cc1 [1,4-dimethylbenzene] | 856.5 ± 0.3 kg/m3 | 138.47 ± 0.2 °C | 1.4952 ± 0.0004 |
